# Source: patent publication US3946018A, “1,4-Dihydro-3 (2H)-isoquinolinone derivatives” (priority 1973, dated 1976)
# Where a name gives a salt, the structure may show the parent alone. Read-outs that look alike come from different tables or passages of the source.
# What was measured:
# [1] = acute oral toxicity (LD50) in mice; conditions: mouse, in vivo
# Procedure: (§1) The LD5o values of the compounds were determined on groups each consisting of 8 mice. The results were evaluated according to the method of Lichtfield and Wilcoxon (J. Pharmacol. exp. Therap. 96, 99 / 1949/).
# in vivo = conditions: mouse, po
# Procedure: (§2) The pharmacological properties of the new compounds were tested on white mice of both sexes, weighing 16 to 24 g. The new compounds were administered orally through a metal stomach tube, in the form of a 5 per cent suspension in a medium containing Tween 80 as suspending agent.
# The paralyzing effect of the compounds was tested on groups each consisting of 8 mice, by the rotarod test. The ED5o rotarod value corresponds to the dosis, which, one hour after the administration, causes 50 per cent of the test animals to fall down from the rotarod within 3 minutes. The neurotoxic activity was evaluated according to the method of Lichtfield and Wilcoxon.
# (§3) For comparison various known and widely used pharmacons, namely phenobarbital (5-ethyl-5-phenylbarbituric acid), phenytoin (5,5-diphenylhydantoine) and trimethadion (3,5,5-trimethyl-2,4-oxazolidine-dione) were also tested under the same conditions.
# white mice [2] = experiment: Maximum Electroshock Seizure Test (electroshock-inhibiting effect); assay type: in vivo, white mice of both sexes; conditions: for Protective Index: ED50 rotarod divided by ED50 ES; for ED50: Mus musculus, read-out: ED50 ES
# Procedure: as §2
# The electroshock-inhibiting effect of the compounds was examined on groups each consisting of 10, individually caged mice. The anticonvulsive activity was tested by the "Maximum Electroshock Seizure Test" of Swinyard, et al. (Epilepsia 10, 107 /1969/), and the inhibition of the tonic extension of the hind limbs was evaluated. […] The results were evaluated according to the method of Lichtfield and Wilcoxon. The electroshock was provoked using corneal electrodes, under the following parameters: 50 Hz, 0.3 sec. 3 msec; the current intensity varied between 28 and 34 mA (a current intensity was maintained that was sufficient to provoke spasm in each of the 10 animals).
# The activities of the compounds with protecting effect against electroshock were compared by the so-called protective index, which was calculated by dividing the individual ED5o rotarod values with the corresponding ED5o ES values. The greater this ratio, the more remote the dosis protecting against electroshock is from the dosis causing muscle relaxation.
# as §3
# white mice [3] = experiment: inhibition of pentamethylenetetrazole-provoked spasm; assay type: in vivo, white mice of both sexes; conditions: Mus musculus, read-out: ED50 pentamethylenetetrazole
# Procedure: The inhibiting effect on pentamethylenetetrazoleprovoked spasm was tested on groups each consisting of 12 individually caged, randomized mice, by the method of Orloff (Proc. Soc. Exp. Biol. Med. N.Y., 70, 254 /1949/). The pentamethylenetetrazole spasm threshold was determined by the slow (0.05 ml./10 sec.) intravenous administration of a 0.5 % pentamethylenetetrazole solution, and the influence of the compounds on the spasm threshold was examined. In every case, the tonic extension of the hind limbs was regarded as spasm.
# white mice [4] = experiment: acute oral toxicity (LD50) in mice; conditions: mouse, in vivo, po
# Procedure: as §1
# [5] = oral, mice, 3 h., inhibition of tonic extension of the hind limbs, protection of 50 % of animals
# [6] = oral, mice, 3 h., 0.5 % pentamethylenetetrazole slow i.v., tonic extension of the hind limbs regarded as spasm
SMILES,LD50 ([1]; po),TD50 (in vivo),Protective Index (white mice [2]),ED50 (white mice [2]; [5]),"LD50 ([1]; oral, mice, read-out: LD50)",TD50 (in vivo; in vivo),"ED50 (white mice [2]; po, 3 h)","ED50 (white mice [3]; po, 3 h)",LD50 (white mice [4]),ED50 (white mice [3]; [6])
"CCCCNCC(=O)Nc1ccc(C2NC(=O)C(C)(C)c3ccccc32)cc1 (centres unmarked) [Example 15, 1,4-Dihydro-1-(4'-/butylaminoacetyl/-amino-phenyl)-4,4-dimethyl-3(2H)-isoquinolinone]",> 1000 mg/kg,~300 mg/kg,~10,29 mg/kg,–,–,–,–,–,–
"CCC1(c2ccccc2)C(=O)NC(=O)NC1=O [5-ethyl-5-phenyl-barbituric acid, 5-ethyl-5-phenylbarbituric acid, reference compound]",–,–,2.5,–,180 mg/kg,38 mg/kg,15 mg/kg,15 mg/kg,–,–
"CCCNCC(=O)Nc1ccc(C2NC(=O)C(C)c3ccccc32)cc1 (centres unmarked) [Example 7, 1,4-Dihydro-4-methyl-1-(4'-/propylaminoacetyl/-aminophenyl)-3(2H)-isoquinolinone]",–,340 mg/kg,15.4,22 mg/kg,–,–,–,–,> 1600 mg/kg,50 mg/kg
"CCNCC(=O)Nc1ccc(C2NC(=O)C(C)(C)c3ccccc32)cc1 (centres unmarked) [Example 10, 1,4-Dihydro-1-(4'-/ethylaminoacetyl/-amino-phenyl)-4,4-dimethyl-3(2H)-isoquinolinone]",–,760 mg/kg,~2,> 300 mg/kg,–,–,–,–,> 2000 mg/kg,50 mg/kg
"CN1C(=O)OC(C)(C)C1=O [3,5,5-trimethyl-2,4-oxazolidine-dione, reference compound]",–,340 mg/kg,0.77,440 mg/kg,1750 mg/kg,–,–,–,–,62 mg/kg
"CCNCC(=O)Nc1ccc(C2NC(=O)Cc3ccccc32)cc1 (centres unmarked) [Example 9, 1,4-Dihydro-1-(4'-/ethylaminoacetyl/-amino-phenyl)-3(2H)-isoquinolinone]",–,520 mg/kg,51,10.2 mg/kg,–,–,–,–,> 1600 mg/kg,50 mg/kg
"CCN(CC)CC(=O)Nc1ccc(C2NC(=O)C(C)(C)c3ccccc32)cc1 (centres unmarked) [Example 16, 1,4-Dihydro-1-(4'-/N,N-diethylaminoacetyl/-amino-phenyl)-4,4-dimethyl-3(2H)-isoquinolinone]",~1600 mg/kg,~1300 mg/kg,~15,~88 mg/kg,–,–,–,–,–,–
"CCCNCC(=O)Nc1ccc(C2NC(=O)C(C(C)C)c3ccccc32)cc1 (centres unmarked) [Example 8, 1,4-Dihydro-4-isopropyl-1-(4'-/propylaminoacetyl/-amino-phenyl)-3(2H)-isoquinolinone]",600 to 800 mg/kg,~50 mg/kg,~2.5,~20 mg/kg,–,–,–,–,–,50 mg/kg
"CNCC(=O)Nc1ccc(C2NC(=O)Cc3ccccc32)cc1 (centres unmarked) [Example 11, 1,4-Dihdryo-1-(4'-/methylaminoacetyl/-amino-phenyl)-3(2H)-isoquinolinone]",~600 mg/kg,270 mg/kg,~12,22 mg/kg,–,–,–,–,–,50 mg/kg
"O=C1NC(=O)C(c2ccccc2)(c2ccccc2)N1 [5,5-diphenyl-hidantoine, 5,5-diphenylhydantoine, reference compound]",–,10 mg/kg,1.0,10 mg/kg,300 mg/kg,–,–,–,–,25 mg/kg
"CNCC(=O)Nc1ccc(C2NC(=O)C(C)(C)c3ccccc32)cc1 (centres unmarked) [Example 13, 1,4-Dihydro-4,4-dimethyl-1-(4'-/methylaminoacetyl/-amino-phenyl)-3(2H)-isoquinolinone maleate]",–,~800 mg/kg,~32,25 mg/kg,–,–,–,–,> 2000 mg/kg,–
"CC(C)NCC(=O)Nc1ccc(C2NC(=O)C(C)(C)c3ccccc32)cc1 (centres unmarked) [Example 14, 1,4-Dihydro-4,4-dimethyl-1-(4'-/isopropylaminoacetyl/-amino-phenyl)-3(2H)-isoqinolinone]",–,~1600 mg/kg,~59,27 mg/kg,–,–,–,–,> 2000 mg/kg,–
"CCCNCC(=O)Nc1ccc(C2NC(=O)C(C)(C)c3ccccc32)cc1 (centres unmarked) [Example 6, 1,4-Dihydro-4,4-dimethyl-1-(4'-/propylaminoacetyl/-amino-phenyl)3-(2H)-isoquinolinone]",1600 mg/kg,435 mg/kg,13.6,32 mg/kg,–,–,–,–,–,100 mg/kg
"CCCNCC(=O)Nc1ccc(C2NC(=O)Cc3ccccc32)cc1 (centres unmarked) [Example 5, 1,4-Dihydro-1-(4'-/propylaminoacetyl/-amino-phenyl)-3(2H)-isoquinolinone]",~2000 mg/kg,490 mg/kg,24,21 mg/kg,–,–,–,–,–,50 mg/kg
"CC(C)NCC(=O)Nc1ccc(C2NC(=O)Cc3ccccc32)cc1 (centres unmarked) [Example 12, 1,4-Dihydro-1-(4'-/isopropylaminoacetyl/-aminophenyl)-3(2H)-isoquinolinone]",–,270 mg/kg,26,10.5 mg/kg,–,–,–,–,> 1000 mg/kg,100 mg/kg
